The record followed here is patent publication US6645973B1, “Spiro(2h-1-benzopyran-2,4-piperidine)derivatives as glycine transport inhibitors” (Akzo Nobel, priority 1999, dated 2003).

Counter-ions that a name gives are not always drawn.

Tested on in one series: not given
Assay: not given
Conditions: not given
Turning to `O=C([O-])CN1CCC2(C=C(c3ccc(F)cc3)c3ccccc3O2)CC1.[Li+]`, the melting point is 285 to 291 °C (dec.).
On the same count and under the same terms, the result for `O=C([O-])CN1CCC2(C=C(c3ccccc3)c3cc(F)ccc3O2)CC1.[Li+]` reads 293 to 298 °C (dec.); that for `O=C([O-])CN1CCC2(C=C(c3ccccc3)c3ccccc3O2)CC1.[Li+]`, 280 to 281 °C; that for `O=C([O-])CN1CCC2(CC1)CC(c1ccc(F)cc1)c1ccccc1O2.[Li+]` (stereo not shown), 274 to 278 °C (dec.).
For the molecule `O=C(O)CN1CCC2(C=C(c3ccc(Cl)cc3)c3ccccc3O2)CC1` (as salt: hydrochloride) [Example 2, 1′-Carboxymethyl-4-(4-chlorophenyl)spiro[2H-1-benzopyran-2,4′-piperidine]hydrochloride], the melting point is 259 to 265 °C.
The molecule `O=C(O)CN1CCC2(C=C(c3ccc(Cl)c(F)c3)c3ccccc3O2)CC1` (as salt: hydrochloride) [Example 8, 1′-Carboxymethyl-4-(4-chloro-3-fluorophenyl)spiro[2H-1-benzopyran-2,4′-piperidine]hydrochloride] came in with a melting point of 263 to 274 °C.
`O=C(O)CN1CCC2(C=C(c3ccc4ccccc4c3)c3ccccc3O2)CC1` (as salt: hydrochloride) [Example 10, 1′-Carboxymethyl-4-(2-naphthyl)spiro[2H-1-benzopyran-2,4′-piperidine]hydrochloride] returned a melting point of 253 to 264 °C.
`COc1ccc(C2=CC3(CCN(CC(=O)O)CC3)Oc3ccccc32)cc1F` (as salt: hydrochloride) [Example 11, 1′-Carboxymethyl-4-(3-fluoro-4-methoxyphenyl)spiro[2H-1-benzopyran-2,4′-piperidine]hydrochloride] yielded a melting point of 252 to 261 °C.

A further series deals with T1, human GlyT-1b transporter (Homo sapiens, UniProt P48067).
T1 construct: expressed in transfected cells; host or cells: CHO cells, stably transfected (pcDNA3, Geneticin selection)
T1 sequence (P48067 1-652 isoform P48067-3): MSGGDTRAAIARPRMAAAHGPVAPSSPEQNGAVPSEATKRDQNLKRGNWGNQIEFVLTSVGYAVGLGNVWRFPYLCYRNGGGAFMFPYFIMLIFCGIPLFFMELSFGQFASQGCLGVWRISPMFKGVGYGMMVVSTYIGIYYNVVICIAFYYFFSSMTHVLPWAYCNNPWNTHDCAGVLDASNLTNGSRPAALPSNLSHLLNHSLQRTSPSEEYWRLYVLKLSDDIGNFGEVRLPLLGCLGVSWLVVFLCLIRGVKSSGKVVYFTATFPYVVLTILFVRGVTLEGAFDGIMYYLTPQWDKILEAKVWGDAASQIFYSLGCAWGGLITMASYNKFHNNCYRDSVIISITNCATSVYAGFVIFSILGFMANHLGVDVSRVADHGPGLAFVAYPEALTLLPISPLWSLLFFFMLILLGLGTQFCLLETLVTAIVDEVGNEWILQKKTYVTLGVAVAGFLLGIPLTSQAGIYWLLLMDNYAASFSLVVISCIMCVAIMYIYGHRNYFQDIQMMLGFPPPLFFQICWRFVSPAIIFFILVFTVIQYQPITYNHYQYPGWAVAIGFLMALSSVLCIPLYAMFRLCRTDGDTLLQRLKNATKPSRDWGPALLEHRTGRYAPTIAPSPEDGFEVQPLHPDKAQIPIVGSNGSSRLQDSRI
Description: Glycine uptake in CHO cells heterologously expressing the human GlyT-1b transporter ([3H]glycine uptake). Format: cell-based. As to conditions: CHO cells stably expressing hGlyT-1b, 10 minutes, 37° C. The method, then:
Method for Determination of Glycine Uptake in CHO Cells Heterologously Expressing the Human GlyT-1b Transporter
A: Cloning: cDNA was generated by PCR according to the method described by Kim, K.-M. et al. Mol. Pharmacol. 1994, 45, 608-617. Sequence was verified by dideoxy sequencing using the ALF DNA sequencer™ (Pharmacia) and cloned into the expression construct pcDNA3 (Invitrogen).
B: Transfection: Transfection of hGlyT-1b into CHO cells was performed using a standard calcium phosphate technique as described by Sambrook, J. et al. (1989) in Molecular Cloning: A Laboratory Manual, Cold Spring Harbor Laboratory, Cold Spring Harbor, N.Y.
C: Selection: Stably transfected cells were selected for 1 week in growth medium containing 1 mg.cm^−3 Geneticin. Individual clones were picked for further analysis and positives passaged routinely as described below.
D: Culture conditions: Cells stably expressing; the hGlyT-1b gene were cultured at 37° C. in a 5% C02 atmosphere in DMEM—NUT.MIX. F12 with Glutamax-1 (Gibco) containing Geneticin (0.5 mg.cm^−3, Gibco) and supplemented with 10% Fetalclone II (Hyclone). Maintenance culture was carried out in standard 80 cm^2 ventilated flasks (2×10^−6 m filter, Nunc) and cells were subcultured by trypsinisation (Sigma) when confluent.
E: Assay Procedure: Cells for uptake studies were plated in 96 well plates (17,000 cells per well) in the absence of Geneticin and cultured for 48 h before use. To measure glycine transport, cells were washed twice with Hanks' balanced salt solution (HBSS) pre-warmed to 37° C. and excess fluid removed before addition of test compounds dissolved in 0.200 cm^3 HBSS. Plates were incubated at 37° C. for 5 minutes before addition of [^3H]glycine (0.050′cm^3, 150×10^−6 M, 248 Bq.nmol^−1, NEN) and incubation continued for a further 10 minutes. Uptake was terminated by washing cells with ice-cold HBSS before removal of excess fluid and addition of 0.200 cm^3 scintillation cocktail to each well. Plates were sealed with adhesive film, shaken to ensure samples were homogenous before scintillation counting in a plate counter.
F: Analysis: Data were analysed using standard curve fitting procedures to produce a plC50 value for active compounds (where plC50 is the negative logarithm of the concentration of test compound causing 50% inhibition of uptake).
`Cc1ccc(C2=CC3(CCN(CC(=O)O)CC3)Oc3ccccc32)cc1.Cl` [Example 4, 1′-Carboxymethyl-4-(4-methylphenyl)spiro[2H-1-benzopyran-2,4′-piperidine]hydrochloride]: the “Inhibition of glycine transport by hGlyT-1, pIC50” value came out at 6.3.
On the same count and under the same terms, with `Cl.O=C(O)CN1CCC2(C=C(c3ccc4c(c3)OCO4)c3ccccc3O2)CC1` [Example 14, 4-(1,3-Benzodioxolo)-1′-carboxymethylspiro[2H-1-benzopyran-2,4′-piperidine]hydrochloride] the figure was 6.1; with `Cl.O=C(O)CN1CCC2(C=C(c3ccc4c(c3)OC(F)(F)O4)c3ccccc3O2)CC1` [Example 33, 1′-Carboxymethyl-4-(2,2-difluoro-1,3-benzodioxolo)spiro[2H-1-benzopyran-2,4′-piperidine]hydrochloride], 6.2.

Staying with this series, now noted: CHO cells stably expressing hGlyT-1b, 10 minutes, 37° C., read-out: Inhibition of glycine transport by hGlyT-1, pIC50 (converted).
For `O=C(O)CN1CCC2(C=C(c3ccc(Cl)cc3)c3ccccc3O2)CC1` [Example 2, 1′-Carboxymethyl-4-(4-chlorophenyl)spiro[2H-1-benzopyran-2,4′-piperidine]hydrochloride], the IC50 was 1 µM.
Turning to `O=C(O)CN1CCC2(C=C(c3ccc(Cl)c(F)c3)c3ccccc3O2)CC1` [Example 8, 1′-Carboxymethyl-4-(4-chloro-3-fluorophenyl)spiro[2H-1-benzopyran-2,4′-piperidine]hydrochloride], the IC50 is 0.501 µM.
Same read-out and setting: the result for `O=C(O)CN1CCC2(C=C(c3ccc4ccccc4c3)c3ccccc3O2)CC1` [Example 10, 1′-Carboxymethyl-4-(2-naphthyl)spiro[2H-1-benzopyran-2,4′-piperidine]hydrochloride] reads 0.631 µM.
As for `COc1ccc(C2=CC3(CCN(CC(=O)O)CC3)Oc3ccccc32)cc1F` [Example 11, 1′-Carboxymethyl-4-(3-fluoro-4-methoxyphenyl)spiro[2H-1-benzopyran-2,4′-piperidine]hydrochloride], the IC50 is 0.631 µM.
On the same count and under the same terms, the result for `CC(C)(C)c1ccc(C2=CC3(CCN(CC(=O)O)CC3)Oc3ccccc32)cc1` [Example 12, 1′-Carboxymethyl-4-(4-tert-butylphenyl)spiro[2H-1-benzopyran-2,4′-piperidine]hydrochloride] reads 0.398 µM.
Same read-out and setting: the result for `CN(C)c1ccc(C2=CC3(CCN(CC(=O)O)CC3)Oc3ccccc32)cc1` [Example 24, 1′-Carboxymethyl-4-[4-(N,N-dimethylamino)phenyl]spiro[2H-1-benzopyran-2,4′-piperidine]hydrochloride] reads 0.631 µM; that for `Cc1ccc(C2=CC3(CCN(CC(=O)O)CC3)Oc3ccccc32)cc1F` [Example 28, 1′-Carboxymethyl-4-(3-fluoro-4-methylphenyl)spiro[2H-1-benzopyran-2,4′-piperidine]hydrochloride], 0.316 µM.
With `Cc1ccc(C2=CC3(CCN(CC(=O)O)CC3)Oc3cc(Cl)ccc32)cc1F` [Example 35, 1′-Carboxymethyl-7-chloro-4-(3-fluoro-4-methylphenyl)spiro[2H-1-benzopyran-2,4′-piperidine]hydrochloride], the IC50 was 0.501 µM.
With `COc1c(F)cc(C2=CC3(CCN(CC(=O)O)CC3)Oc3ccccc32)cc1F` [Example 36, 1′-Carboxymethyl-4-(3,5-difluoro-4-methoxyphenyl)spiro[2H-1-benzopyran-2,4′-piperidine]hydrochloride], the IC50 was 0.398 µM.
With `CN(C)c1ccc(C2=CC3(CCN(CC(=O)O)CC3)Oc3ccccc32)cc1F` [Example 37, 1′-Carboxymethyl-4-(4-dimethylamino-3-fluorophenyl)spiro[2H-1-benzopyran-2,4′-piperidine]hydrochloride], the IC50 was 0.398 µM.
With `CN(C)c1c(F)cc(C2=CC3(CCN(CC(=O)O)CC3)Oc3ccccc32)cc1F` [Example 38, 1′-Carboxymethyl-4-(3,5-difluoro-4-dimethylaminophenyl)spiro[2H-1-benzopyran-2,4′-piperidine]hydrochloride], the IC50 is 0.251 µM.
`O=C(O)CN1CCC2(C=C(c3ccc(Br)c(F)c3)c3ccccc3O2)CC1` [Example 39, 4-(4-Bromo-3-fluorophenyl)-1′-carboxymethylspiro[2H-1-benzopyran-2,4′-piperidine]hydrochloride]: the IC50 is 0.794 µM.
On to `CCCOc1ccc(C2=CC3(CCN(CC(=O)O)CC3)Oc3ccccc32)cc1F` [Example 48, 1′-Carboxymethyl-4-(3-fluoro-4-n-propoxyphenyl)spiro[2H-1-benzopyran-2,4′-piperidine]hydrochloride], for which the IC50 was 0.501 µM.
`CCCCOc1ccc(C2=CC3(CCN(CC(=O)O)CC3)Oc3ccccc32)cc1F` [Example 49, 1′-Carboxymethyl-4-(3-fluoro-4-n-butoxyphenyl)spiro[2H-1-benzopyran-2,4′-piperidine]hydrochloride]: the IC50 is 0.794 µM.
Same read-out and setting: the result for `C=CCOc1c(F)cc(C2=CC3(CCN(CC(=O)O)CC3)Oc3ccccc32)cc1F` [Example 55, 4-(4-Allyloxy-3,5-difluorophenyl)-1′-carboxymethylspiro[2H-1-benzopyran-2,4′-piperidine]hydrochloride] reads 0.251 µM; that for `C#CCOc1c(F)cc(C2=CC3(CCN(CC(=O)O)CC3)Oc3ccccc32)cc1F` [Example 57, 1′-Carboxymethyl-4-(3,5-difluoro-4-propargyloxyphenyl)spiro[2H-1-benzopyran-2,4′-piperidine]hydrochloride], 0.251 µM.
For the molecule `O=C(O)CN1CCC2(C=C(c3cc(F)c(OCC(F)(F)F)c(F)c3)c3ccccc3O2)CC1` [Example 59, 1′-Carboxymethyl-4-(3,5-difluoro-4-trifluoroethoxyphenyl)spiro[2H-1-benzopyran-2,4′-piperidine]hydrochloride], the IC50 is 0.251 µM.
